“And” between values parts separate entries of the source, which are not always exact repeats. Identical values can stand only once. Marks after values point to notes of the source that are not given here.
Assay: Pharmacokinetic study of 153 (iv, po) in SD rats: 153 and endothal in plasma, liver, brain
Format: in vivo, SD rats
Protocol: The blood, liver and brain tissue samples were collected at predetermined times from rats. […] Compound were diluted shortly before use in 4% sodium bicarbonate for sterile injection (this is the standard pediatric solution of NaHCO3 with a pH of about 8.5).
Compound 153 was freshly prepared by diluting the drugs shortly before use in 4% sodium bicarbonate for sterile injection (this is the standard pediatric solution of NaHCO3 with a pH of about 8.5). The final concentrations of 153 solutions were 0.25 mg/mL. The 153 solutions were administered via iv or po route at dose volume of 5 ml/kg according to the latest body weight. Compound 157 was freshly prepared by diluting the drugs shortly before use in 4% sodium bicarbonate for sterile injection (this is the standard pediatric solution of NaHCO3 with a pH of about 8.5). The final concentrations of […] solutions were 0.3 mg/mL. The 157 solutions were administered via iv or po route at dose volume of 5 ml/kg according to the latest body weight.
Twelve (12) female SD rats per group were dosed by iv with 153 or 157. The rats were fasted overnight prior to dosing, with free access to water. Foods were withheld for 2 hours post-dose. Blood, liver and brain tissue samples in two animals each group were collected at each time point, within 10% of the scheduled time for each time point. Two extra animals were used for analytic method development.
Blood (>0.3 mL) were collected via aorta abdominalis in anaesthetic animals into tubes containing heparin at 15 min, 1, 2, 6, 10 and 24 hours after iv administration. Liver and brain tissues were collected immediately after animal death. The liver and brain tissues were excised and rinsed with cold saline to avoid blood residual. Upon collection, each sample was placed on ice and the blood samples were subsequently centrifuged (4° C., 11000 rpm, 5 min) to separate plasma.
The obtained plasma, liver and brain tissue samples were stored at −70° C. until LC-MS/MS analysis.
Two (2) female SD rats per group were dosed by po with 153 or 157. The rats were fasted overnight prior to dosing, with free access to water. Foods were withheld for 2 hours post-dose. Blood samples (>0.3 mL) were collected via aorta abdominalis in anaesthetic animals into tubes containing heparin at 30 min, 1, 2, 6, 10 and 24 hours after po administration.
To each sample, 20 μL IS-D (for blank samples, 20 μL acetonitrile:water (1:1) was added) and 300 μl acetonitrile was added. The sample mixture was vortexed for approximately 3 min. After centrifugation at 10000 rpm for 5 min at 4° C., 100 μL of the upper layer was transferred to a new tube and added 200 μL 0.4% formic acid in water (pH 6.0). The mixture was vortexed for approximately 3 min before injected onto the LC/MS/MS system for analysis.
On the day of the assay, the frozen liver and brain samples were thawed unassisted at room temperature. An about 200 mg weighed sample of each thawed tissue was placed into a plastic tube with water (0.6 mL) to facilitate homogenization. Tissue processing was conducted using a homogenizer for approximately 1 min, 200 μl homogenate was transferred into a fresh Eppendorf tube. To each tube, 50 μL IS-D was added and mixed. Then 600 ul acetonitrile was added and the sample mixture was vortexed for approximately 3 min. After centrifugation at 10000 rpm for 5 min at 4° C., 400 μL of the upper layer was transferred to a new tube and evaporate the supernatant to dryness at 35° C. Reconstitute the residue with 200 μL of 0.4% formic acid in water (pH6.0), and vortex for 3 min, submit for LC-MS/MS analysis.
Frozen unknown plasma samples were completely thawed at room temperature and vortexed thoroughly. With a pipette, 50 μL of plasma was transferred into a 2.0 mL Eppendorf tube. 50 μL of 0.1N HCl and 800 μL ethyl acetate were added into each sample. The sample mixture was vortexed for approximately 3 min.

[1] = iv 1.25 mg/kg, 0.25 hr, individual rats, 1.25 mg/kg
[2] = iv 1.25 mg/kg, 1 hr, individual rats, 1.25 mg/kg
[3] = iv 1.25 mg/kg, 2 hr, individual rats, 1.25 mg/kg
[4] = plasma, 153 1.25 mg/kg PO, individual rats, 1.25 mg/kg

CCCOC(=O)C1C2CCC(O2)C1C(=O)N1CCN(C)CC1 (stereo not shown) [Compound 153]
153 plasma concentration (PO 1.25 mg/kg, 0.25 hr, individual rats, 1.25 mg/kg): 652 ng/mL | 153 plasma concentration (PO 1.25 mg/kg, 1 hr, individual rats, 1.25 mg/kg): 121 ng/mL | MRT (female, SD, rat, in vivo, iv, 1.25 mg/kg, MRT (0 t)): 40 min | MRT (0 t) (female, SD, rat, in vivo, po, 1.25 mg/kg): 60.6 min | MRT (female, SD, rat, in vivo, po, 1.25 mg/kg, MRT (0 t)): 59.2 min | MRT (female, SD, rat, in vivo, plasma, 153 1.25 mg/kg PO, individual rats, read-out: MRT (0 t)): 62.4 min | Cmax (female, Sprague-Dawley, rat, in vivo, iv, 1.25 mg/kg): 762 ng/g | concentration at 2 hr (female, Sprague-Dawley, rat, in vivo, po, 1.25 mg/kg): 42 ng/mL | concentration at 0.25 hr (female, Sprague-Dawley, rat, in vivo, po, 1.25 mg/kg, PO 1.25 mg/kg, 0.25 hr, individual rats): 872 ng/mL | concentration at 0.25 hr (female, Sprague-Dawley, rat, in vivo, po, 1.25 mg/kg, PO 1.25 mg/kg, 0.25 hr, mean): 762 ng/mL | concentration at 1 hr (female, Sprague-Dawley, rat, in vivo, po, 1.25 mg/kg, PO 1.25 mg/kg, 1 hr, individual rats): 131 ng/mL | concentration at 1 hr (female, Sprague-Dawley, rat, in vivo, po, 1.25 mg/kg, PO 1.25 mg/kg, 1 hr, mean): 126 ng/mL | concentration at 2 hr (female, Sprague-Dawley, rat, in vivo, po, 1.25 mg/kg, PO 1.25 mg/kg, 2 hr, individual rats, read-out: 153 plasma concentration): 41.2 ng/mL | concentration at 2 hr (female, Sprague-Dawley, rat, in vivo, po, 1.25 mg/kg, PO 1.25 mg/kg, 2 hr, mean, read-out: 153 plasma concentration): 41.6 ng/mL | 153 brain concentration [1]: 45 ng/g and 40.3 ng/g | 153 liver concentration [1]: 872 ng/g and 652 ng/g | 153 plasma concentration [1]: 563 ng/mL and 550 ng/mL | 153 brain concentration (iv 1.25 mg/kg, 0.25 hr, mean): 42.7 ng/g | 153 liver concentration (iv 1.25 mg/kg, 0.25 hr, mean): 762 ng/g | 153 plasma concentration (iv 1.25 mg/kg, 0.25 hr, mean): 557 ng/mL | 153 brain concentration [2]: 13.9 ng/g and 14.3 ng/g | 153 liver concentration [2]: 131 ng/g and 121 ng/g | 153 plasma concentration [2]: 58 ng/mL and 51.4 ng/mL | 153 brain concentration (iv 1.25 mg/kg, 1 hr, mean): 14.1 ng/g | 153 liver concentration (iv 1.25 mg/kg, 1 hr, mean): 126 ng/g | 153 plasma concentration (iv 1.25 mg/kg, 1 hr, mean): 54.7 ng/mL | 153 brain concentration [3]: 4.05 ng/g and 4.75 ng/g | 153 liver concentration [3]: 42 ng/g and 41.2 ng/g | 153 plasma concentration [3]: 14.8 ng/mL and 13 ng/mL | 153 brain concentration (iv 1.25 mg/kg, 2 hr, mean): 4.4 ng/g | 153 liver concentration (iv 1.25 mg/kg, 2 hr, mean): 41.6 ng/g | 153 plasma concentration (iv 1.25 mg/kg, 2 hr, mean): 13.9 ng/mL | 153 plasma concentration (iv 1.25 mg/kg, 6 hr, individual rats, 1.25 mg/kg): 1.04 ng/mL and 1.02 ng/mL | 153 plasma concentration (iv 1.25 mg/kg, 6 hr, mean): 1.03 ng/mL | 153 plasma concentration (iv 1.25 mg/kg, 10 hr, individual rat, abnormal, not included in the calculation): 9.42* ng/mL | T1/2 in brain (iv administration of 153): 35.8 min | T1/2 in liver (iv administration of 153): 37.6 min | Cmax (plasma, 153 1.25 mg/kg IV, individual rats, 1.25 mg/kg): 563 ng/mL | AUC [4]: 163 ng·h/mL | AUC0-∞ [4]: 163 ng·h/mL | AUClast in brain (rat, in vivo, iv): 39.4 ng·h/g | AUClast in liver (rat, in vivo, iv): 500 ng·h/g | oral availability (rat, in vivo, po, 1.25 mg/kg): orally available

Source: US11236102B2, “Oxabicycloheptane prodrugs” (Lixte Biotechnology, Inc., priority 2015, dated 2022)
